A short description of data set [1]: Stability of compound A and its salts, content by HPLC. Conditions: for Content by HPLC after storage: raw material purity 98.6%. It counts as physicochemical. How it is done: (1) Content Determination Method
With a Octadecyl silane chemically bonded silica as bulking agent and 0.1% aqueous solution of ammonia-acetonitrile (65:35) as mobile phase, eluted in gradient mode at detection wavelength of 230 nm. Appropriate amount of test sample and reference solution was taken, then water was added to dissolve which to form solutions every 1 ml containing 0.2 mg of them respectively. The test sample solution and reference solution 10 μl was respectively taken and injected into the liquid chromatograph. chromatograph chart was recorded, and calculated by peak area according to the external standard method.
The stability of different types of the pharmaceutically acceptable salts of compound A under different conditions

The next data set in a line: in vivo. Conditions: male, rat, po, 6 mg/kg.
For data set [2], the system named is genetic obese Wistar rats with diabetes. The experiment in a line: Effects of the 6 salts in genetic obese Wistar rats with diabetes (14 days). It counts as in vivo, rat. Conditions: for Hemoglobin (hemoglobin A1) / Plasma glucose: male Wistar fat rats, 10 mg/kg/day p.o. in feed, mean ± SD, n=5-6. The protocol: 14 to 19 week-old male Wistar fat rats were divided into five groups, each to group 5 to 6, and they were respectively administered the 6 salts of compound A (each 10 mg/kg weight/day, p.o.) which were mixed in commercial feed at a ratio of […] for 14 days. The blood was taken from tail vein, a commercial kits (NC-ROPET, Nippon Chemiphar CO.) was used to measure plasma glucose and hemoglobin A1 by enzymatic is method. The results were expressed as mean value of each group (n=5-6)±standard deviation and analyzed by Dunnett's test which were shown in table 2. A significance level of 1% was used.

The test system is the same in data set [3]. In words: Oral glucose tolerance test in genetic obese Wistar rats with diabetes. Particulars: for Plasma glucose: 30 mg/kg/day p.o. for 7 days, mean ± SD. It counts as in vivo, rat. The protocol: 13˜14 week-old male fat rats were divided into five groups, each group five. They were respectively administered the 6 salts of compound A (each 30 mg/kg/day, p.o.) for 7 days. After overnight fasting, oral glucose tolerance tests were conducted immidiately (2 g glucose/kg/5 ml, p.o.). Before and 120 and 240 mins after the glucose tolerance test, blood was collected from the tail vein, and plasma glucose was analyzed by enzymatic method (Encore Chemical System; Baker). Results were expressed as mean value of each group (n=5-6)±standard deviation analyzed by Dunnett's test which were shown in table 3.

A short description of data set [4]: Absorption tests in rats of different salts (pharmacokinetics). Particulars: rat, 6.0 mg/kg (by base) by gavage; for t1/2: 0.5% CMC-Na suspension.
Description: (§1) 16 healthy male rats weighing 200˜220 g were randomly divided into four groups. […] The plasma was separated, preserved for test under −20° C. The blood concentration was tested by HPLC-Tandem Mass Spectrum.
The mark [5] stands for this setting: 0 min (before glucose load 2 g/kg p.o.).
Where [6] appears, read: 120 min after glucose load 2 g/kg p.o.
Where [7] appears, read: 240 min after glucose load 2 g/kg p.o.

Description for in vivo: as §1

On to `COC(=O)c1nc(C(F)(F)F)n2c1CN(C(=O)C[C@H](N)Cc1cc(F)c(F)cc1F)CC2` [Compound A, (R)-7-[3-amino-4-(2,4,5-trifluoro-phenyl)-butyryl]-3-trifluoromethyl-5,6,7,8-tetrahydro-imidazo[1,5-a]pyrazine-1-carboxylic acid methyl ester], for which the “Content by HPLC after storage” value in data set [1] (40° C., 10 days) turned out to be 95.2%. Besides, the “Content by HPLC after storage” value in data set [1] (60° C., 10 days) came out at 95.7%. Further, the “Content by HPLC after storage” value in data set [1] (Light, 10 days) came out at 95.2%. Moreover, the “Content by HPLC after storage” value in data set [1] (RH60%, 25° C., nine months) turned out to be 93.3%. Moreover, the “Content by HPLC after storage” value in data set [1] (RH75%, 40° C., six months) is recorded as 92.2%. In “in vivo”, the AUC0-t was found to be 409 ng·h/mL, the AUC(0-inf) was determined as 425 ng·h/mL, the CL/F turned out to be 545 mL/min/kg and the Cmax is 242 ng/mL. Also, in the data set “in vivo”, the MRT was 1.96 h, the Tmax amounted to 0.5 h and the half-life was 1.54 h.

As to `COC(=O)c1nc(C(F)(F)F)n2c1CN(C(=O)C[C@H](N)Cc1cc(F)c(F)cc1F)CC2.Cl` [Hydrochloride of compound A, hydrochloride of (R)-7-[3-amino-4-(2,4,5-trifluoro-phenyl)-butyryl]-3-trifluoromethyl-5,6,7,8-tetrahydro-imidazo[1,5-a]pyrazine-1-carboxylic acid methyl ester], the “Content by HPLC after storage” value turned out to be 98.7% in data set [1] (40° C., 10 days); 98.2% in data set [1] (60° C., 10 days); 98.1% in data set [1] (Light, 10 days); 97.5% in data set [1] (RH60%, 25° C., nine months); 97.7% in data set [1] (RH75%, 40° C., six months). In addition, the “Stability test result in words” value in data set [1] (conclusion over all storage conditions) is given as “most satisfying”. For the same compound, the “Effect on blood glucose and hemoglobin in words” value in data set [2] (Wistar fat rats, 10 mg/kg/day) is “reduce the concentration of blood glucose and hemoglobin obviously”. Besides, the “Hemoglobin (hemoglobin A1)” value in data set [2] was found to be 4.5 ± 0.5. Further, the Plasma glucose in data set [2] stood at 165 ± 13; in data set [3] (setting [5]), 109 ± 5 mg/dL; in data set [3] (setting [6]), 116 ± 7 mg/dL; in data set [3] (setting [7]) it was 106 ± 3 mg/dL. Moreover, in data set [3] (30 mg/kg/day p.o., 7 days), the “Effect on increase of blood sugar after the glucose tolerance test in words” value is “significantly inhibited the increase of blood sugar”. In data set [4], the AUC0-t turned out to be 317 ng·h/mL. Moreover, the “AUC0-∞” value in data set [4] was 319 ng·h/mL. Besides, in data set [4], the CL/F was found to be 348 mL/min/kg. Also, in data set [4], the Cmax was 148 ng/mL. In addition, the MRT in data set [4] is 1.86 h. Moreover, the Tmax in data set [4] is reported as 0.63 h. The t1/2 in data set [4] is 1.07 h.

On to `COC(=O)c1nc(C(F)(F)F)n2c1CN(C(=O)CC(N)Cc1cc(F)c(F)cc1F)CC2.CS(=O)(=O)O` (stereo not shown) [Mesylate of compound A], for which the “Content by HPLC after storage” value in data set [1] (40° C., 10 days) was found to be 96.7%. The “Content by HPLC after storage” value in data set [1] (60° C., 10 days) is 96.5%. The “Content by HPLC after storage” value in data set [1] (Light, 10 days) was determined as 97.6%. Also, in data set [1] (RH60%, 25° C., nine months), the “Content by HPLC after storage” value was determined as 95.6%. Also, in data set [1] (RH75%, 40° C., six months), the “Content by HPLC after storage” value amounted to 95.4%. Also, in data set [2], the “Hemoglobin (hemoglobin A1)” value is on record as 5.8 ± 0.4 and the Plasma glucose is 287 ± 34. Besides, in data set [3] (setting [5]), the Plasma glucose was 108 ± 8 mg/dL. This compound also gave a Plasma glucose in data set [3] (setting [6]) of 115 ± 9 mg/dL. The same compound had a Plasma glucose in data set [3] (setting [7]) of 92 ± 7 mg/dL. In addition, in data set [4], the AUC0-t was found to be 274 ng·h/mL, the “AUC0-∞” value is 275 ng·h/mL, the CL/F was determined as 397 mL/min/kg and the Cmax is 133 ng/mL. In data set [4], the MRT amounted to 1.61 h, the Tmax is 0.88 h and the t1/2 was determined as 0.87 h.

In general, AUC(0-inf) refers to the area under the concentration-time curve extrapolated to infinity. Read a low AUC(0-inf) as less exposure. In general, CL/F refers to the apparent clearance, not corrected for the fraction that reaches the circulation. For orientation: Cmax means the highest concentration seen after dosing. Broadly, the MRT is the average time that molecules of a dose stay in the body. Broadly, the Tmax is the time from dosing to the highest level. Broadly, the half-life is the time in which the quantity being followed falls by half. Low values mean rapid decline, high ones slow decline.

Source of the values: US8618104B2, “Salts of methyl (R)-7-[3-amino-4-(2,4,5-trifluoro-phenyl)-butyryl]-3-trifluoromethyl-5,6,7,8-tetrahydro-imidazo[1,5-A]pyrazine-1-carboxylate” (Jiangsu Hengrui Medicine Co., Ltd., priority 2009, dated 2013).
